Data published in ChEMBL document CHEMBL1201862, “PubChem BioAssay data set” (2004).
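Results reflect a 48-hour exposure of cells in 96-well plates to compound at five concentrations. The concentration for 50% growth inhibition is given as GI50.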 Activity calls are given as the source filed them. Rule as the data show it: active = GI50 up to about 1.1 µM and inactive = higher.

Columns and labels:
Assay in all cases: DTP human tumour cell line panel, 48 h
[1] = tested on: 786-0
[2] = tested on: A498
[3] = tested on: A549
[4] = tested on: ACHN
[5] = tested on: CAKI-1
[6] = tested on: CCRF-CEM
[7] = tested on: COLO 205
[8] = tested on: DLD-1
[9] = tested on: DMS-114
[10] = tested on: HCC 2998
[11] = tested on: HCT-116
[12] = tested on: HCT-15
[13] = tested on: HL-60
[14] = tested on: HOP-62
[15] = tested on: HOP-92
[16] = tested on: HT-29
[17] = tested on: IGROV-1
[18] = tested on: K562
[19] = tested on: KM-20L2
[20] = tested on: KM12
[21] = tested on: LOX IMVI
[22] = tested on: LXFL 529
[23] = tested on: M14
[24] = tested on: M19-MEL
[25] = tested on: MOLT-4
[26] = tested on: Malme-3M
[27] = tested on: NCI-H226
[28] = tested on: NCI-H460
[29] = tested on: NCI-H522
[30] = tested on: OVCAR-3
[31] = tested on: OVCAR-4
[32] = tested on: OVCAR-5
[33] = tested on: OVCAR-8
[34] = tested on: RPMI-8226
[35] = tested on: RXF 631
[36] = tested on: SF-268
[37] = tested on: SF-295
[38] = tested on: SF-539
[39] = tested on: SK-MEL-2
[40] = tested on: SK-MEL-5
[41] = tested on: SK-OV-3
[42] = tested on: SN12C
[43] = tested on: SNB-19
[44] = tested on: SNB-75
[45] = tested on: SW-620
[46] = tested on: UACC-257
[47] = tested on: UACC-62
[48] = tested on: UO-31
[49] = tested on: XF498
[50] = tested on: BT-549
[51] = tested on: DMS-273
[52] = tested on: DU-145
[53] = tested on: EKVX
[54] = tested on: HOP-18
[55] = tested on: Hs-578T
[56] = tested on: MCF7
[57] = tested on: MDA-MB-231
[58] = tested on: MDA-MB-435
[59] = tested on: MDA-N
[60] = tested on: NCI-H23
[61] = tested on: NCI/ADR-RES
[62] = tested on: PC-3
[63] = tested on: RXF 393
[64] = tested on: SK-MEL-28
[65] = tested on: SNB-78
[66] = tested on: SR
[67] = tested on: T47D
[68] = tested on: TK-10
[69] = tested on: U-251

**Q.** For `O=CC[C@H]1CCc2ccccc2C12CCC(=O)CC2`, which GI50 [1] is on record?
**A.** Its GI50 is > 100 µM (inactive).

**Q.** And the GI50 [2]?
**A.** Its GI50 is > 100 µM (inactive).

**Q.** What about the GI50 [3] of the same compound?
**A.** The GI50 was 55.7 µM (inactive).

**Q.** What about the GI50 [4] of the same compound?
**A.** Its GI50 is > 100 µM (inactive).

**Q.** And the GI50 [5]?
**A.** The GI50 was > 100 µM (inactive).

**Q.** And the GI50 [6]?
**A.** Its GI50 is 39.8 µM (inactive).

**Q.** What about the GI50 [7] of the same compound?
**A.** Its GI50 is 94.2 µM (inactive).

**Q.** What about the GI50 [8] of the same compound?
**A.** The GI50 was 60.7 µM (inactive).

**Q.** What about the GI50 [9] of the same compound?
**A.** The GI50 was 33.8 µM (inactive).

**Q.** And the GI50 [10]?
**A.** The GI50 was > 100 µM (inactive).

**Q.** What about the GI50 [11] of the same compound?
**A.** Its GI50 is 39.3 µM (inactive).

**Q.** And the GI50 [12]?
**A.** The GI50 was 80.4 µM.

**Q.** And the GI50 [13]?
**A.** The GI50 was 23.7 µM (inactive).

**Q.** And the GI50 [14]?
**A.** Its GI50 is > 100 µM (inactive).

**Q.** What about the GI50 [15] of the same compound?
**A.** The GI50 was 68.4 µM (inactive).

**Q.** What about the GI50 [16] of the same compound?
**A.** The GI50 was 47.9 µM (inactive).

**Q.** And the GI50 [17]?
**A.** Its GI50 is > 100 µM (inactive).

**Q.** What about the GI50 [18] of the same compound?
**A.** The GI50 was 28.2 µM (inactive).

**Q.** And the GI50 [19]?
**A.** The GI50 was 22.1 µM (inactive).

**Q.** What about the GI50 [20] of the same compound?
**A.** The GI50 was 82.8 µM (inactive).

**Q.** What about the GI50 [21] of the same compound?
**A.** Its GI50 is 62.7 µM (inactive).

**Q.** And the GI50 [22]?
**A.** The GI50 was 57.5 µM (inactive).

**Q.** And the GI50 [23]?
**A.** The GI50 was 86.3 µM (inactive).

**Q.** What about the GI50 [24] of the same compound?
**A.** Its GI50 is 57.7 µM (inactive).

**Q.** What about the GI50 [25] of the same compound?
**A.** Its GI50 is 30.5 µM (inactive).

**Q.** And the GI50 [26]?
**A.** The GI50 was 74.5 µM (inactive).

**Q.** What about the GI50 [27] of the same compound?
**A.** Its GI50 is 51.4 µM (inactive).

**Q.** What about the GI50 [28] of the same compound?
**A.** The GI50 was > 100 µM (inactive).

**Q.** What about the GI50 [29] of the same compound?
**A.** Its GI50 is 43.2 µM (inactive).

**Q.** What about the GI50 [30] of the same compound?
**A.** The GI50 was > 100 µM (inactive).

**Q.** What about the GI50 [31] of the same compound?
**A.** Its GI50 is > 100 µM (inactive).

**Q.** And the GI50 [32]?
**A.** The GI50 was > 100 µM (inactive).

**Q.** What about the GI50 [33] of the same compound?
**A.** Its GI50 is > 100 µM (inactive).

**Q.** And the GI50 [34]?
**A.** The GI50 was 35.4 µM (inactive).

**Q.** And the GI50 [35]?
**A.** The GI50 was > 100 µM (inactive).

**Q.** What about the GI50 [36] of the same compound?
**A.** Its GI50 is 76.6 µM (inactive).

**Q.** What about the GI50 [37] of the same compound?
**A.** Its GI50 is > 100 µM (inactive).

**Q.** What about the GI50 [38] of the same compound?
**A.** Its GI50 is 6.21 µM (inactive).

**Q.** What about the GI50 [39] of the same compound?
**A.** The GI50 was > 100 µM (inactive).

**Q.** What about the GI50 [40] of the same compound?
**A.** Its GI50 is 92.9 µM (inactive).

**Q.** What about the GI50 [41] of the same compound?
**A.** The GI50 was > 100 µM (inactive).

**Q.** And the GI50 [42]?
**A.** The GI50 was 67.8 µM (inactive).

**Q.** What about the GI50 [43] of the same compound?
**A.** Its GI50 is 87.7 µM (inactive).

**Q.** And the GI50 [44]?
**A.** The GI50 was 52.8 µM (inactive).

**Q.** And the GI50 [45]?
**A.** The GI50 was 80.2 µM (inactive).

**Q.** What about the GI50 [46] of the same compound?
**A.** The GI50 was 60.8 µM (inactive).

**Q.** And the GI50 [47]?
**A.** Its GI50 is 92 µM (inactive).

**Q.** What about the GI50 [48] of the same compound?
**A.** The GI50 was 33.7 µM (inactive).

**Q.** What about the GI50 [49] of the same compound?
**A.** The GI50 was 51.5 µM (inactive).

**Q.** Which results are given for `CC1OC(=O)C2CC3CCCCC3C(/C=C/C3CCCC(C)N3C)C12` (configuration not stated)?
**A.** GI50 [1]: > 100 µM (inactive); GI50 [2]: > 100 µM (inactive); GI50 [3]: > 100 µM (inactive); GI50 [4]: > 100 µM (inactive); GI50 [50]: > 100 µM (inactive); GI50 [5]: > 100 µM (inactive); GI50 [6]: > 100 µM (inactive); GI50 [7]: > 100 µM (inactive); GI50 [8]: > 100 µM (inactive); GI50 [9]: > 100 µM (inactive); GI50 [51]: > 100 µM (inactive); GI50 [52]: > 100 µM (inactive); GI50 [53]: > 100 µM (inactive); GI50 [10]: > 100 µM (inactive); GI50 [11]: > 100 µM (inactive); GI50 [12]: > 100 µM; GI50 [13]: > 100 µM (inactive); GI50 [54]: > 100 µM (inactive); GI50 [14]: > 100 µM (inactive); GI50 [15]: > 100 µM (inactive); GI50 [16]: > 100 µM (inactive); GI50 [55]: > 100 µM (inactive); GI50 [17]: > 100 µM (inactive); GI50 [18]: > 100 µM (inactive); GI50 [19]: 79.8 µM (inactive); GI50 [20]: > 100 µM (inactive); GI50 [21]: > 100 µM (inactive); GI50 [22]: > 100 µM (inactive); GI50 [23]: > 100 µM (inactive); GI50 [24]: > 100 µM (inactive); GI50 [56]: 90.8 µM (inactive); GI50 [57]: > 100 µM (inactive); GI50 [58]: > 100 µM (inactive); GI50 [59]: > 100 µM (inactive); GI50 [25]: > 100 µM (inactive); GI50 [26]: > 100 µM (inactive); GI50 [27]: > 100 µM (inactive); GI50 [60]: > 100 µM (inactive); GI50 [28]: > 100 µM (inactive); GI50 [29]: > 100 µM (inactive); GI50 [61]: > 100 µM (inactive); GI50 [30]: > 100 µM (inactive); GI50 [31]: > 100 µM (inactive); GI50 [32]: > 100 µM (inactive); GI50 [33]: > 100 µM (inactive); GI50 [62]: > 100 µM (inactive); GI50 [34]: > 100 µM (inactive); GI50 [63]: > 100 µM (inactive); GI50 [36]: > 100 µM (inactive); GI50 [37]: 63.1 µM (inactive); GI50 [38]: > 100 µM (inactive); GI50 [64]: > 100 µM (inactive); GI50 [39]: 83.2 µM (inactive); GI50 [40]: 94.6 µM (inactive); GI50 [41]: > 100 µM (inactive); GI50 [42]: > 100 µM (inactive); GI50 [43]: > 100 µM (inactive); GI50 [44]: > 95.5 µM (inactive); GI50 [65]: > 22.5 µM (inactive); GI50 [66]: > 100 µM (inactive); GI50 [45]: > 100 µM (inactive); GI50 [67]: > 100 µM (inactive); GI50 [68]: > 100 µM (inactive); GI50 [69]: > 100 µM (inactive); GI50 [46]: > 100 µM (inactive); GI50 [47]: > 100 µM (inactive); GI50 [48]: > 100 µM (inactive); GI50 [49]: > 100 µM (inactive)
